{"source": "ChEMBL document CHEMBL5726207", "about": "“Substituted N,2-diarylquinoline-4-carboxamides and the use thereof as anti-inflammatory agents” (2019)", "biological_target": "Prostaglandin F2-alpha receptor (Homo sapiens, UniProt P43088)", "sequence (P43088 whole entry)": "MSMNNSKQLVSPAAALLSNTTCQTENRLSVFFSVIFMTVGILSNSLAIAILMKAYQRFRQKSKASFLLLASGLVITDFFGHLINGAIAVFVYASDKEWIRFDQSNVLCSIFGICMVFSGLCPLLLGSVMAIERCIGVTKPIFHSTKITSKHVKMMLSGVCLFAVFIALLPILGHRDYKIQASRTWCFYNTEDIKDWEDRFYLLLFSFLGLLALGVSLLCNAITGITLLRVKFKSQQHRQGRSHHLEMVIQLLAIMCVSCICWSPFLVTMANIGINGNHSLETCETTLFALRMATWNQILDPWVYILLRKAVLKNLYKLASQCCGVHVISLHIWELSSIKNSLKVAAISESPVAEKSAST", "test": "470 nm/em. 525 nm in a fluorescence measuring instrument (FLIPR Tetra, MolecularDevices) for 120 seconds.", "type": "cell-based", "note": "Values joined by “and” are separate entries in the source; they are usually repeats but may differ in a detail not shown here. Equal entries are not always repeated."}
{"smiles": "Cc1c(-c2ccccc2)nc2ccc(Br)cc2c1C(=O)Nc1ccc(C(=O)O)cc1F", "values": [{"measurement": "IC50", "value": "53 nM and 47 nM"}]}
